# B1: Recombinant rat interleukin-1-α (protein, UniProt P16598 115-270, looked up)
# Interleukin-1 alpha: SAPHSFQNNLRYKLIRIVKQEFIMNDSLNQNIYVDMDRIHLKAASLNDLQLEVKFDMYAYSSGGDDSKYPVTLKVSNTQLFVSAQGEDKPVLLKEIPETPKLITGSETDLIFFWEKINSKNYFTSAAFPELLIATKEQSQVHLARGLPSMIDFQIS
# notes: recombinant rat cytokine insufflated intratracheally to induce lung inflammation
# B2: interferon-y (protein, UniProt P01581 23-156, looked up)
# Interferon gamma: QGTLIESLESLKNYFNSSSMDAMEGKSLLLDIWRNWQKDGNTKILESQIISFYLRLFEVLKDNQAISNNISVIESHLITNFFSNSKAKKDAFMSIAKFEVNNPQIQHKAVNELIRVIHQLSPESSLRKRKRSRC
# notes: as for B1
# What was measured:
# O-form XOR = target: T1, O-form XOR (Rattus norvegicus, UniProt P22985); test: DTT reduction of O-form XOR in soluble lung protein extracts; assay type: biochemical; conditions: 5 nM DTT at 37° C. for one hour, re-chromatographed on sephadex G25 (FIG. 1e)
# T1 construct: Total XOR activity in lung and liver tissue was determined using whole tissue protein extracts; from tissue; host or cells: lung (and liver) of Sprague-Dawley rats
# Protocol: FIGS. 1A-E. Lung XOR induction following cytokine insufflation. Total lung and liver XOR activity was quantitated in the presence of NAD^+ in soluble desalted protein extracts from rats that were insufflated 24h before with saline, IL-1, IFN-γ or IL-1 and IFN-γ. […] IL-1 and IFN-γ insufflated rats had increased (**, p<0.02) lung (A), but not (p>0.05) liver (B), XOR activity compared to rats insufflated with saline, IL-1 (*, p<0.05), or IFN-γp>0.05). (C) Western immunoblot analysis of lung XOR from cytokine insufflated rats. Antibody to rat β-actin was used to control for gel loading. Gels were scanned with a Perkin-Elmer phosphoimager for semi-quantitation. Data are shown for two rats in each group. […] (D) The percentage of O-form XOR was quantitated in soluble protein extracts of cytokine insufflated rat lungs. […] Rats insufflated with IL-1 and IFN-γ had increased (*, p<0.05) lung O-form XOR activity compared to rats insufflated with saline, IL-1 or IFN-γ. […]
# We quantitated the levels of O-form XOR in untreated or cytokine insufflated rat lungs. […] Soluble lung protein extracts from insufflated rats were exposed to 5 nM DTT at 37° C. for one hour and were re-chromatographed on sephadex G25 after which D-form and O-form content was re-measured. […]
# XOR [1] = target: T2, XOR (Rattus norvegicus, UniProt P22985); test: Xanthine oxidoreductase assay, lung tissue extracts of cytokine insufflated rats; assay type: in vivo; conditions: for induction of total lung XOR activity: 24 hours following intratracheal cytokine insufflation (50 ng per rat) compared to saline alone (FIG. 1a); for lung O-form XOR content: lungs 24 h after insufflation, untreated 23%, saline 42% (FIG. 1d)
# T2 construct: Total XOR activity in lung and liver tissue was determined using whole tissue protein extracts; from tissue; host or cells: lung (and liver) of Sprague-Dawley rats
# Protocol: (§1) Intratracheal cytokine insufflation.
# (§2) Xanthine oxidoreductase assay. Total XOR activity in lung and liver tissue was determined using whole tissue protein extracts. Briefly, tissues that had been perfused blood free were placed into liquid N2 and stored at −80° C. prior to generating enzyme extracts. Enzyme extracts were prepared by placing frozen specimens in extract buffer (100 mM K-Phosphate, pH 7.8, 1 mM EDTA, 1 mM PMSF). Tissues were thawed in extract buffer on ice and minced. Minced tissues were broken in a rotating dounce using exactly three strokes of the pestle. Tissue homogenates were then centrifuged at 15,000×g at 4° C. for 30 min. Clarified extracts were desalted on 2 cm×20 cm Sephadex G25 columns to remove low molecular weight substances that potentially interfere with enzyme activity (48), and 3 ml of the flow through front were collected. Allopurinol inhibitable XOR activity was determined spectroscopically by measuring uric acid formation from xanthine at 290 nm. The stability of uric acid added to the flow through fraction was determined in the presence and absence of the uricase inhibitor, oxonic acid (OA). […] Evaluation of D-form XOR and O-form XOR was determined by measuring enzymatic activity in the presence and absence of NAD+(49).
# XOR [2] = conditions: cited from earlier work
# [3] = tested on: IL-1 and IFN-γ insufflated rats; test: Differential and total inflammatory cell counts in BALF after cytokine insufflation; assay type: in vivo, rat; conditions: for macrophages in BALF (differential analysis) / neutrophils in BALF (differential analysis): 24 hours following insufflation
# Excerpt: as §1
# caspase-3 = test: Activated caspase-3 detection in lung sections; assay type: in vivo, rat; conditions: prior feeding with diet, IL-1 and IFN-γ insufflation 24 hours before (FIG. 4h)
# Protocol: Activated caspase-3 detection. Detection of the cleaved, mature, activated caspase-3 was performed on paraffin-embedded sections using the Cell Signaling Technology, Inc (Beverly, Mass.) protocol. First, paraffin-embedded slides were deparaffinized and rehydrated. Incubation with 1% H2O2 for 10 min blocked endogenous peroxidase activity. For antigen unmasking, the tissue sections were microwaved in 10 mM sodium citrate buffer (pH 6.0) for 10 min. Next, the sections were blocked in 5% goat serum for 1 hr at room temperature. Slides were then incubated at 4° C. overnight with caspase-3 antibody specific for the cleaved, mature, form of caspase-3 diluted 1:200 in phosphate buffered saline (Asp-175; Cell Signaling Technology, Inc). This was followed by a 30 min incubation with a 1:200 dilution of goat anti-rabbit antibody (PK-6101; Vector Laboratories, Burlingame, Calif.). A subsequent 30 min incubation with VectaStain Elite ABC reagent (PK-6101; Vector Laboratories) ensued. This reaction was followed by the addition of the DAB substrate kit for peroxidase (SK-4100; Vector Labs). The slides were finally counterstained with hematoxylin (H-3401; Vector Labs), dehydrated and mounted. Caspase-3 positive cells were quantitated by counting the percent positive alveolar cells per field under 100× magnification.
# XOR [4] = target: T2, XOR; test: XOR activity in BALF cells / adherent MNP of cytokine insufflated rats; conditions: in vivo
# Protocol: as §1
# as §2, with “Clarified extracts were desalted on 2 cm×20 cm Sephadex G25 columns to remove low molecular weight substances that potentially interfere with enzyme activity (48), and 3 ml of the flow through front were collected.” left out
# Neutrophils and MNP were recovered from the BALF 24 hours following IL-1 and IFN-γ insufflation and purified on Percoll gradients. […] Although XOR was induced over a 24 hour period in the infiltrating MNP recovered from the lungs of IL-1 and IFN-γ insufflated rats, neither XOR activity or antigen was detected in circulating rat monocytes (not shown). […]
# [5] = tested on: IL-1 and IFN-γ insufflated rats; test: Lung histology (H&E) after cytokine insufflation; conditions: diet before IL-1 and IFN-γ insufflation, 24 hours later (FIG. 4d)
# alveolar cells = test: TUNEL staining and morphometric analysis; assay type: in vivo, rat; conditions: prior feeding with diet, IL-1 and IFN-γ insufflation 24 h before (FIG. 4f,g)
# Protocol: TUNEL staining and morphometric analysis. The TUNEL assay was used to detect apoptotic cells in fixed lung sections. After fixation with 4% buffered formalin, lung tissue sections were embedded in paraffin, sectioned at […], and mounted on glass slides. Slides were de-paraffinized, rehydrated for 10 min in PBS, and treated with 0.002% proteinase K (Sigma) in distilled water for 5 to 15 min at room temperature. Terminal deoxynucleotidyl transferase (TdT) was used for labeling of DNA nicks using the TACS kit (Trevigen, Inc., Gaithersburg, Md.). Counterstaining with DAPI was done to stain nuclear DNA and with Rhodamine coupled wheat germ agglutinin (WGA, Molecular Probes, Eugene, Oreg.) to stain the structural architecture. TUNEL positive cell staining appeared as green fluorescence in the nuclei of clearly defined alveolar cells. Background nuclear staining appeared as blue while the tissue architecture was red.
# T2 sequence (P22985 whole entry): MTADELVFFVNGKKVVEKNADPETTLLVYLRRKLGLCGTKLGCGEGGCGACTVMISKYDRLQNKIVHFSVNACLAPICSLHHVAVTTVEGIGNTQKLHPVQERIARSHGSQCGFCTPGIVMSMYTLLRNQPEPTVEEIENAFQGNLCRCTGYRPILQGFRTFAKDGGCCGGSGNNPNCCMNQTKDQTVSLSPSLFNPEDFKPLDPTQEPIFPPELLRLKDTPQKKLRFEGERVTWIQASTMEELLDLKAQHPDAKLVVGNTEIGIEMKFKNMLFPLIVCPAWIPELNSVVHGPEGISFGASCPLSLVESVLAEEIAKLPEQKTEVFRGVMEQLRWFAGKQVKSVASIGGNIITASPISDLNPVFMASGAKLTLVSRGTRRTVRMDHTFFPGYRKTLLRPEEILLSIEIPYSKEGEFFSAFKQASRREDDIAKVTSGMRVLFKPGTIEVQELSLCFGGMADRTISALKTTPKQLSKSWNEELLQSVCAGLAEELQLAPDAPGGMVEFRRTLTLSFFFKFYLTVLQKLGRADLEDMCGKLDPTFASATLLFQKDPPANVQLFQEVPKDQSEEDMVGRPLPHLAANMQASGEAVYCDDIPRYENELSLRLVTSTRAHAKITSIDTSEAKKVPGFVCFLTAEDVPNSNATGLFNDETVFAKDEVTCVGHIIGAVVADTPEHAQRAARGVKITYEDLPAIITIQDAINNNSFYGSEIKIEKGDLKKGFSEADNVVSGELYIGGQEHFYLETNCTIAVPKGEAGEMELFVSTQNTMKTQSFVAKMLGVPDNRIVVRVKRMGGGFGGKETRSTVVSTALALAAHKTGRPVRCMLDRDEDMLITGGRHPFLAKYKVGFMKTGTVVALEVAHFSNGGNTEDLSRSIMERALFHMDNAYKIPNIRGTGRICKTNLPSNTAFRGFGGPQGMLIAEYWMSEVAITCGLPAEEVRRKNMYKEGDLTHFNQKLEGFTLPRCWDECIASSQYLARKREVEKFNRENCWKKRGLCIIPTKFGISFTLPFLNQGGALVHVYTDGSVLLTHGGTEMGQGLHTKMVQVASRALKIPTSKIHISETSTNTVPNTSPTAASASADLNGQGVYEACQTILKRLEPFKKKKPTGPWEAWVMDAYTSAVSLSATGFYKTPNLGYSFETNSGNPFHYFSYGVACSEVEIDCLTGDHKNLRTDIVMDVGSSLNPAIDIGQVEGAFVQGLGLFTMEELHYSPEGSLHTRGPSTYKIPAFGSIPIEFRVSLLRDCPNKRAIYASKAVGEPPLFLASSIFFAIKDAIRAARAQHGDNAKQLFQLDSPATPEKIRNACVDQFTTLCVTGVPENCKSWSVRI
# T1 sequence (P22985 whole entry): as above
molecule,measurement,setting,value
"O[C@H](CS)[C@H](O)CS (racemic) [DTT, dithiothreitol]",O-form XOR after DTT reduction,O-form XOR,approximately 23 % of the total XOR
[W] [tungsten],XOR activity in the lungs,"XOR [1]; tungsten diet before IL-1 and IFN-γ insufflation, 24 hours later, vs control diet (FIG. 4a)",decreased
same,mononuclear cell infiltration and rejection signs,XOR [2]; day 9 post-transplantation,significantly ameliorated
same,NADPH-oxidase activity,XOR [2]; renal allografts,without any effect
same,XOR activity and ROS production,XOR [2]; renal allografts,pronounced reduction
same,accumulation of inflammatory cells (BALF cell numbers),"[3]; diet before IL-1 and IFN-γ insufflation, 24 hours later, allopurinol 50 mg/Kg for seven days (FIG. 4c)",reduced
same,activation of caspase-3 in cytokine insufflated rat lungs,caspase-3,blocked
same,XOR activity in the BALF cells (MNP XOR activity),XOR [4],decreased
same,histologic evidence of airway and perivascular inflammation,[5],attenuated
same,development of alveolar apoptosis (TUNEL positive alveolar nuclei),alveolar cells,attenuated
B1,induction of total lung XOR activity,XOR [1],approximate doubling
same,lung O-form XOR content,XOR [1],57 % of the total XOR activity
same,macrophages in BALF (differential analysis),[3],~20%
same,neutrophils in BALF (differential analysis),[3],approximately 80%
B2,induction of total lung XOR activity,XOR [1],negligible response
same,lung O-form XOR content,XOR [1],52 % of the total XOR activity
same,macrophages in BALF (differential analysis),[3],~20%
same,neutrophils in BALF (differential analysis),[3],approximately 80%
